Structures are written as SMILES.

Experimental findings from patent US20240351986A1, “UREA COMPOUND CONTAINING 2-HETEROAROMATIC RING SUBSTITUTION, PREPARATION METHOD THEREFOR AND USE THEREOF” (SHANGHAI INSTITUTE OF MATERIA MEDICA, CHINESE ACADEMY OF …, priority 2021, published 2024) are described below.

The test concerns the target T1, Recombinant human CDK9/cyclin T1 (Homo sapiens, UniProt P50750).
T1 construct: purchased Carna bioscience 04-110
Description: CDK9 enzyme inhibitory activity (ADP-Glo kinase assay). It counts as biochemical. As to conditions: CDK9 enzyme activity, average of two independent repeats; for inhibition at 0.01 µM: read-out: Inhibition rate at different concentrations (%) 10 nM; for inhibition at 0.1 µM: read-out: Inhibition rate at different concentrations (%) 100 nM. Here is the method: Experimental method: Recombinant human CDK9/cyclin T1 (Carna bioscience, Cat #04-110) was diluted with dilution buffer (20 mM Tris HCl (pH 7.5), 0.02% Triton X-100, 0.01% BSA, 2 mM DTT, 0.5 mM Na3VO4, 10% Glycerol) to […], the substrates CDK7/9 tide (ThermoFisher, Cat #PV5090) and ATP (sigmaaldrich, Cat #A1852) were diluted with assay buffer (25 mM Tris HCl (pH7.5), 10 mM MgCl2, 0.5 mM EGTA (pH 8), 0.5 mM Na3VO4, 5 mMb-glycerol phosphate, 0.1% Triton X-100, 2.5 mM DTT) to final concentrations of 100 μM and […] respectively, aliquot and set aside. 2 μl of diluted recombinant human CDK9/cyclin T1, 1 μl of test compound, and 2 μl of diluted substrate CDK7/9 tide containing ATP were added to the 384-well plate. […] The positive control was the well in which enzyme and substrate were co-incubated, and the negative control was the well in which dilution buffer and substrate were co-incubated. The inhibition rate was calculated according to the following formula.
Background: ADP-Glo turns the ADP formed in a reaction into a luminescent signal.

T1 sequence (P50750 whole entry): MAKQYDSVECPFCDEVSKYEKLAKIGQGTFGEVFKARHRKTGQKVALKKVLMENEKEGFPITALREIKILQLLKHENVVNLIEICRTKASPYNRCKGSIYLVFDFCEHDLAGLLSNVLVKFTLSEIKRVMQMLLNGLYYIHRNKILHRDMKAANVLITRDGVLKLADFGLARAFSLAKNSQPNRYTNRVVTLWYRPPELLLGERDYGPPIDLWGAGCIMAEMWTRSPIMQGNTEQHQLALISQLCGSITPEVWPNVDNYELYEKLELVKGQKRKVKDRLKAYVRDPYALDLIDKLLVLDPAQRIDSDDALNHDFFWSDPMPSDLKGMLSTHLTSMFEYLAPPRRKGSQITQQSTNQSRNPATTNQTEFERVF
T1 sequence (O60563 whole entry partner): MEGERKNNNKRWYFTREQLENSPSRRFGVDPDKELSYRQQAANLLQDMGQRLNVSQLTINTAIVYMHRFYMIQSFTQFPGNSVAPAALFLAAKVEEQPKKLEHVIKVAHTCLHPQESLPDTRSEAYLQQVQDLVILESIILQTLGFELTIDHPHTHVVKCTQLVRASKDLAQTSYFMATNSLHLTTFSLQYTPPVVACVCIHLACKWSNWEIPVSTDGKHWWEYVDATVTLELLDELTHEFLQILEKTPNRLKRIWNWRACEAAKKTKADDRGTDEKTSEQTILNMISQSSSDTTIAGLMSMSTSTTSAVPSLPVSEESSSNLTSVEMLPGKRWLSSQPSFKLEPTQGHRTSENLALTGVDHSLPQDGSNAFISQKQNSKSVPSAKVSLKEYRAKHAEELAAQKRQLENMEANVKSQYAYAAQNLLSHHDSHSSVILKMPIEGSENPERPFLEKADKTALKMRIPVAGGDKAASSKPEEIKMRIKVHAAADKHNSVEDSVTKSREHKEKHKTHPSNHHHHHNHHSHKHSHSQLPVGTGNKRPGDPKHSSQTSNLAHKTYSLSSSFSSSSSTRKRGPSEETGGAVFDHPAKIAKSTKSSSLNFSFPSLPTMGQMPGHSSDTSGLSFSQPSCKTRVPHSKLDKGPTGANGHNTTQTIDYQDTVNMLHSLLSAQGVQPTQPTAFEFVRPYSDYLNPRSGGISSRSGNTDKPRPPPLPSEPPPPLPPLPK

Take `CN(C)CC(=O)NC1CCC(NC(=O)Nc2cc(-c3cnn4c3CC(C)(C)C4)c(Cl)cn2)CC1` (centres unmarked) [Example 48, N-((1r,4r)-4-(3-(5-chloro-4-(5,5-dimethyl-5,6-dihydro-4H-pyrrolo [1,2-b]pyrazol-3-yl)pyridin-2-yl)ureido)cyclohexyl)-2-(dimethylamino)acetamide]: the inhibition at 0.01 µM (compound 10 nM) is 54%. Further, the inhibition at 0.1 µM (compound 100 nM) was found to be 74%.
`CC1(C)Cc2c(-c3cc(NC(=O)NC4CCC(NC(=O)C5CC5)CC4)ncc3Cl)cnn2C1` (centres unmarked) [Example 49]: for the setting “compound 10 nM”, the inhibition at 0.01 µM worked out at 58%. Where the note is “compound 100 nM”, the inhibition at 0.1 µM stood at 89.2%.
Consider `CC1(C)Cc2c(-c3cc(NC(=O)NC4CCC(NC(=O)C5COC5)CC4)ncc3Cl)cnn2C1` (centres unmarked) [Example 50, N-((1r,4r)-4-(3-(5-chloro-4-(5,5-dimethyl-5,6-dihydro-4H-pyrrolo[1,2-b]pyrazol-3-yl)pyridin-2-yl)ureido)cyclohexyl) oxetane-3-carboxamide], for which, for the setting “compound 10 nM”, the inhibition at 0.01 µM is 53.2%. In addition, the inhibition at 0.1 µM (compound 100 nM) came to 95.1%.
Take `CC(=O)NC1CCC(NC(=O)Nc2cc(-c3cnn4c3CC(C)(C)C4)c(F)cn2)CC1` (centres unmarked) [Example 51, N-((1r,4r)-4-(3-(4-(5,5-dimethyl-5,6-dihydro-4H-pyrrolo[1,2-b]pyrazol-3-yl)-5-fluoropyridin-2-yl)ureido)cyclohexyl)acetamide]: the inhibition at 0.01 µM (compound 10 nM) came to 60.2%. Moreover, the inhibition at 0.1 µM (compound 100 nM) came out at 92.8%.
Taken in the same sequence, the figures for `CC(=O)NC1CCC(NC(=O)Nc2cc(-c3cnn4c3CC(C)(C)C4)c(C)cn2)CC1` (centres unmarked) [Example 52, N-((1r,4r)-4-(3-(4-(5,5-dimethyl-5,6-dihydro-4H-pyrrolo[1,2-b]pyrazol-3-yl-S-methylpyridin-2-yl)ureido)cyclohexyl)acetamide] were 39.7% and 78.5%.
Taken in the same sequence, the figures for `CC(=O)NC1CCC(NC(=O)Nc2cc(-c3cnn4c3CC(C)(C)C4)c(C3CC3)cn2)CC1` (centres unmarked) [Example 53, N-((1r,4r)-4-(3-(4-(5,5-dimethyl-5,6-dihydro-4H-pyrrolo[1,2-b]pyrazol-3-yl)-5-cyclopropylpyridin-2-yl)ureido)cyclohexyl)acetamide] were 40.3% and 59.8%.
For `[2H]C([2H])([2H])C(=O)NC1CCC(NC(=O)Nc2cc(-c3cnn4c3CC(C)(C)C4)c(Cl)cn2)CC1` (centres unmarked) [Example 54, N-((1r,4r)-4-(3-(5-chloro-4-(5,5-dimethyl-5,6-dihydro-4H-pyrrolo[1,2-b]pyrazol-3-yl)pyridin-2-yl)ureido)cyclohexyl)acetamide-2,2,2-d3], where the note is “compound 10 nM”, the inhibition at 0.01 µM was found to be 70.8%. The inhibition at 0.1 µM (compound 100 nM) was found to be 97.4%.
With `COCC(C)NC1CCC(NC(=O)Nc2cc(-c3cnn4c3CC(C)(C)C4)c(Cl)cn2)CC1` (centres unmarked) [Example 55, 1-(5-chloro-4-(5,5-dimethyl-5,6-dihydro-4H-pyrrolo[1,2-b]pyrazol-3-yl)pyridin-2-yl)-3-((1r,4r)-4-((1-methoxypropan-2-yl)amino)cyclohexyl)urea], the inhibition at 0.01 µM (compound 10 nM) is 61.3%. Moreover, the inhibition at 0.1 µM (compound 100 nM) worked out at 93.1%.
Turning to `CN(C)CCNC1CCC(NC(=O)Nc2cc(-c3cnn4c3CC(C)(C)C4)c(Cl)cn2)CC1` (centres unmarked) [Example 56, 1-(5-chloro-4-(5,5-dimethyl-5,6-dihydro-4H-pyrrolo[1,2-b]pyrazol-3-yl)pyridin-2-yl)-3-((1r,4r)-4-((2-(dimethylamino)ethyl)amino)cyclohexyl)urea], for the setting “compound 10 nM”, the inhibition at 0.01 µM amounted to 44.9%. Moreover, the inhibition at 0.1 µM (compound 100 nM) amounted to 95.2%.
With `CC1(C)Cc2c(-c3cc(NC(=O)NC4CCC(NCCOC(F)(F)F)CC4)ncc3Cl)cnn2C1` (centres unmarked) [Example 57], the inhibition at 0.01 µM (compound 10 nM) was 55%. Also, the inhibition at 0.1 µM (compound 100 nM) is 86.5%.
In the case of `[2H]C([2H])([2H])OCCNC1CCC(NC(=O)Nc2cc(-c3cnn4c3CC(C)(C)C4)c(Cl)cn2)CC1` (centres unmarked) [Example 58, 1-(5-chloro-4-(5,5-dimethyl-5,6-dihydro-4H-pyrrolo[1,2-b]pyrazol-3-yl)pyridin-2-yl)-3-((1r,4r)-4-((2-(methoxy-d3)ethyl)amino)cyclohexyl)urea], the inhibition at 0.01 µM (compound 10 nM) was 65.1%. For the same compound, the inhibition at 0.1 µM (compound 100 nM) came out at 98.2%.
Taken in the same sequence, the figures for `CCNC1CCC(NC(=O)Nc2cc(-c3cnn4c3CC(C)(C)C4)c(Cl)cn2)CC1` (centres unmarked) [Example 59, 1-(5-chloro-4-(5,5-dimethyl-5,6-dihydro-4H-pyrrolo[1,2-b]pyrazol-3-yl)pyridin-2-yl)-3-((1r,4r)-4-(ethylamino)cyclohexyl)urea] were 72% and 62%.
`CC(C)NC1CCC(NC(=O)Nc2cc(-c3cnn4c3CC(C)(C)C4)c(Cl)cn2)CC1` (centres unmarked) [Example 60, 1-(5-chloro-4-(5,5-dimethyl-5,6-dihydro-4H-pyrrolo[1,2-b]pyrazol-3-yl)pyridin-2-yl)-3-((1r,4r)-4-(isopropylamino)cyclohexyl)urea]: the inhibition at 0.01 µM (compound 10 nM) was determined as 49%. Also, the inhibition at 0.1 µM (compound 100 nM) was 87.3%.
As to `CC1(C)Cc2c(-c3cc(NC(=O)NC4CCC(NCCF)CC4)ncc3Cl)cnn2C1` (centres unmarked) [Example 61, 1-(5-chloro-4-(5,5-dimethyl-5,6-dihydro-4H-pyrrolo[1,2-b]pyrazol-3-yl)pyridin-2-yl)-3-((1r,4r)-4-((2-fluoroethyl)amino)cyclohexyl)urea], under “compound 10 nM”, the inhibition at 0.01 µM worked out at 58.3%. Besides, where the note is “compound 100 nM”, the inhibition at 0.1 µM worked out at 85.1%.
For `CC1(C)Cc2c(-c3cc(NC(=O)NC4CCC(NCCO)CC4)ncc3Cl)cnn2C1` (centres unmarked) [Example 62, 1-(5-chloro-4-(5,5-dimethyl-5,6-dihydro-4H-pyrrolo[1,2-b]pyrazol-3-yl)pyridin-2-yl)-3-((1r,4r)-4-((2-hydroxyethyl)amino)cyclohexyl)urea], under “compound 10 nM”, the inhibition at 0.01 µM is 54%. Further, the inhibition at 0.1 µM (compound 100 nM) turned out to be 90.9%.
Turning to `CC1(C)Cc2c(-c3cc(NC(=O)NC4CCC(NC5COC5)CC4)ncc3Cl)cnn2C1` (centres unmarked) [Example 63], the inhibition at 0.01 µM (compound 10 nM) was found to be 40.2%. Besides, the inhibition at 0.1 µM (compound 100 nM) was determined as 69.3%.
Regarding `CC1(C)Cc2c(-c3cc(NC(=O)NC4CCC(NC(=O)OC(C)(C)C)CC4)ncc3Cl)cnn2C1` (centres unmarked) [Example 64, tert-butyl (1s,4s)-4-(3-(5-chloro-4-(5,5-dimethyl-5,6-dihydro-4H-pyrrolo [1,2-b]pyrazol-3-yl)pyridin-2-yl)ureido)cyclohexylcarbamate], the inhibition at 0.01 µM (compound 10 nM) came to 28%. The inhibition at 0.1 µM (compound 100 nM) was 56%.
As for `CC1(C)Cc2c(-c3cc(NC(=O)NC4CCC(N)CC4)ncc3Cl)cnn2C1` (centres unmarked) [Example 65, 1-((1s,4s)-4-aminocyclohexyl)-3-(5-chloro-4-(5,5-dimethyl-5,6-dihydro-4H-pyrrolo[1,2-b]pyrazol-3-yl)pyridin-2-yl)urea], the “Inhibition rate at different concentrations (%) 10 nM” value (compound 10 nM, 0.01 µM) stood at 58.0%. Further, the “Inhibition rate at different concentrations (%) 100 nM” value (compound 100 nM, 0.1 µM) stood at 84.0%.
Regarding `COCCNC1CCC(NC(=O)Nc2cc(-c3cnn4c3CC(C)(C)C4)c(Cl)cn2)CC1` (centres unmarked) [Example 66, 1-(5-chloro-4-(5,5-dimethyl-5,6-dihydro-4H-pyrrolo[1,2-b]pyrazol-3-yl)pyridin-2-yl)-3-((1s,4s)-4-((2-methoxyethyl)amino)cyclohexyl)urea], the inhibition at 0.01 µM (compound 10 nM) stood at 57%. The inhibition at 0.1 µM (compound 100 nM) was 69%.
Take `CC1(C)Cc2c(-c3cc(NC(=O)NC4CCNCC4)ncc3Cl)cnn2C1` [Example 68, 1-(5-chloro-4-(5,5-dimethyl-5,6-dihydro-4H-pyrrolo[1,2-b]pyrazol-3-yl)pyridin-2-yl)-3-(piperidin-4-yl)urea]: where the note is “compound 10 nM”, the inhibition at 0.01 µM was determined as 44%. The inhibition at 0.1 µM (compound 100 nM) was found to be 89%.
As for `CC1(C)Cc2c(-c3cc(NC(=O)NC4CCCNCC4)ncc3Cl)cnn2C1` (centres unmarked) [Example 69, 1-(azepan-4-yl)-3-(5-chloro-4-(5,5-dimethyl-5,6-dihydro-4H-pyrrolo[1,2-b]pyrazol-3-yl)pyridin-2-yl)urea], under “compound 10 nM”, the inhibition at 0.01 µM amounted to 33.8%. In addition, where the note is “compound 100 nM”, the inhibition at 0.1 µM was 79.5%.
Take `CC1(C)Cc2c(-c3cc(NC(=O)NC4CCCC(N)CC4)ncc3Cl)cnn2C1` (centres unmarked) [Example 70, 1-(4-aminocycloheptyl)-3-(5-chloro-4-(5,5-dimethyl-5,6-dihydro-4H-pyrrolo[1,2-b]pyrazole-3-yl)pyridin-2-yl)urea]: the inhibition at 0.01 µM (compound 10 nM) amounted to 40%. In addition, the inhibition at 0.1 µM (compound 100 nM) turned out to be 83.7%.
For `CC1(C)Cc2c(-c3cc(NC(=O)NCCCNC(=O)OC(C)(C)C)ncc3Cl)cnn2C1` [Example 71, tert-butyl (3-(3-(5-chloro-4-(5,5-dimethyl-5,6-dihydro-4H-pyrrolo[1,2-b]pyrazol-3-)pyridin-2-yl)ureido)propyl)carbamate] the same measures were 34% and 64%.
`CC1(C)Cc2c(-c3cc(NC(=O)NCCCN)ncc3Cl)cnn2C1` [Example 72, 1-(3-aminopropyl)-3-(5-chloro-4-(5,5-dimethyl-5,6-dihydro-4H-pyrrolo [1,2-b]pyrazol-3-yl)pyridin-2-yl)urea]: under “compound 10 nM”, the inhibition at 0.01 µM turned out to be 45%. Moreover, the inhibition at 0.1 µM (compound 100 nM) is 69%.
In the case of `CC1(C)Cc2c(-c3cc(NC(=O)N[C@@H]4CC[C@@H](N)C4)ncc3Cl)cnn2C1` [Example 73, 1-((1S,3S)-3-aminocyclopentyl)-3-(5-chloro-4-(5,5-dimethyl-5,6-dihydro-4H-pyrrole[1,2-b]pyrazole-3-yl)pyridin-2-yl)urea], the inhibition at 0.01 µM (compound 10 nM) turned out to be 70%. For the same compound, for the setting “compound 100 nM”, the inhibition at 0.1 µM came out at 86%.
